Assay results taken from the supplement of paper PMC10307832.

Assays:
Assay in all cases: relative viability (nuclei count vs DMSO), 5 days (fraction); higher = more cells survive
NCI-H1355 = system: NCI-H1355
Procedure, shortened: (§1)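 One day after seeding in 1536-well plates, lung cancer cell lines were dosed by pin tool. Dosing was either single-drug or a fixed anchor-drug dose plus five library-drug doses (not always all listed) in √10 steps. After 5 days, nuclei were stained in one fix-and-stain step and counted on 4× images, and relative viability is the nuclei count of treated wells over that of vehicle wells, given as the median of duplicate plates.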

UMC-11 = system: UMC-11
Procedure, shortened: as §1

NCI-H1563 = system: NCI-H1563
Procedure, shortened: as §1

NCI-H1944 = system: NCI-H1944
Procedure, shortened: as §1

NCI-H1651 = system: NCI-H1651
Procedure, shortened: as §1

LCLC-97TM1 = system: LCLC-97TM1
Procedure, shortened: as §1

ChaGo-K-1 = system: ChaGo-K-1
Procedure, shortened: as §1

HCC-44 = system: HCC-44
Procedure, shortened: as §1

NCI-H650 = system: NCI-H650
Procedure, shortened: as §1

EPLC-272H = system: EPLC-272H
Procedure, shortened: as §1

SK-MES-1 = system: SK-MES-1
Procedure, shortened: as §1

NCI-H2405 = system: NCI-H2405
Procedure, shortened: as §1

LCLC-103H = system: LCLC-103H
Procedure, shortened: as §1

NCI-H322M = system: NCI-H322M
Procedure, shortened: as §1

HCC-827 = system: HCC-827
Procedure, shortened: as §1

NCI-H520 = system: NCI-H520
Procedure, shortened: as §1

NCI-H2087 = system: NCI-H2087
Procedure, shortened: as §1

NCI-H2085 = system: NCI-H2085
Procedure, shortened: as §1

EMC-BAC-2 = system: EMC-BAC-2
Procedure, shortened: as §1

H3255 = system: H3255
Procedure, shortened: as §1

NCI-H2023 = system: NCI-H2023
Procedure, shortened: as §1

`CC1(C)CCC(c2ccc(Cl)cc2)=C(CN2CCN(c3ccc(C(=O)NS(=O)(=O)c4ccc(N[C@H](CCN5CCOCC5)CSc5ccccc5)c(S(=O)(=O)C(F)(F)F)c4)cc3)CC2)C1` [Navitoclax] + C[C@@H](Oc1cc(-c2cnn(C3CCNCC3)c2)cnc1N)c1c(Cl)ccc(F)c1Cl [Crizotinib] (partner 1 µM) showed a relative viability (NCI-H1355; first compound 0.005 µM) of 1.03, a relative viability (NCI-H1355; first compound 0.01581 µM) of 1.15 and a relative viability (NCI-H1355; first compound 0.05 µM) of 1.02. For the same compound, the relative viability (NCI-H1355; first compound 0.1581 µM) was 1.05, the relative viability (NCI-H1355; first compound 0.5 µM) was 1.03 and the relative viability (UMC-11; first compound 0.005 µM) was 0.646. It also gave a relative viability (UMC-11; first compound 0.01581 µM) of 0.583, a relative viability (UMC-11; first compound 0.1581 µM) of 0.636 and a relative viability (UMC-11; first compound 0.5 µM) of 0.401. It also gave a relative viability (NCI-H1563; first compound 0.005 µM) of 0.908, a relative viability (NCI-H1563; first compound 0.01581 µM) of 0.92 and a relative viability (NCI-H1563; first compound 0.05 µM) of 0.897. The relative viability (NCI-H1563; first compound 0.1581 µM) was 0.808, the relative viability (NCI-H1563; first compound 0.5 µM) was 1.12 and the relative viability (NCI-H1944; first compound 0.005 µM) was 1.05. The relative viability (NCI-H1944; first compound 0.01581 µM) was 1.13, the relative viability (NCI-H1944; first compound 0.05 µM) was 0.798 and the relative viability (NCI-H1944; first compound 0.1581 µM) was 1.14. The relative viability (NCI-H1944; first compound 0.5 µM) was 1.03, the relative viability (NCI-H1651; first compound 0.005 µM) was 0.877 and the relative viability (NCI-H1651; first compound 0.01581 µM) was 0.939. For the same compound, the relative viability (NCI-H1651; first compound 0.05 µM) was 0.78, the relative viability (NCI-H1651; first compound 0.1581 µM) was 0.821 and the relative viability (NCI-H1651; first compound 0.5 µM) was 0.839. The relative viability (LCLC-97TM1; first compound 0.005 µM) was 0.358, the relative viability (LCLC-97TM1; first compound 0.01581 µM) was 0.337 and the relative viability (LCLC-97TM1; first compound 0.05 µM) was 0.294. The relative viability (LCLC-97TM1; first compound 0.1581 µM) was 0.333, the relative viability (LCLC-97TM1; first compound 0.5 µM) was 0.381 and the relative viability (ChaGo-K-1; first compound 0.005 µM) was 1.1. The relative viability (ChaGo-K-1; first compound 0.01581 µM) was 1.11, the relative viability (ChaGo-K-1; first compound 0.05 µM) was 0.601 and the relative viability (ChaGo-K-1; first compound 0.1581 µM) was 1.1. The relative viability (ChaGo-K-1; first compound 0.5 µM) was 1.19, the relative viability (HCC-44; first compound 0.005 µM) was 0.815 and the relative viability (HCC-44; first compound 0.01581 µM) was 0.835. It also gave a relative viability (HCC-44; first compound 0.05 µM) of 0.794, a relative viability (HCC-44; first compound 0.1581 µM) of 0.825 and a relative viability (HCC-44; first compound 0.5 µM) of 0.866. For the same compound, the relative viability (NCI-H650; first compound 0.005 µM) was 0.636, the relative viability (NCI-H650; first compound 0.01581 µM) was 0.699 and the relative viability (NCI-H650; first compound 0.05 µM) was 0.814. It also gave a relative viability (NCI-H650; first compound 0.1581 µM) of 0.707, a relative viability (NCI-H650; first compound 0.5 µM) of 0.805 and a relative viability (EPLC-272H; first compound 0.005 µM) of 1.37. The relative viability (EPLC-272H; first compound 0.1581 µM) was 0.99, the relative viability (EPLC-272H; first compound 0.5 µM) was 1.08 and the relative viability (SK-MES-1; first compound 0.005 µM) was 0.953. For the same compound, the relative viability (SK-MES-1; first compound 0.01581 µM) was 1.07, the relative viability (SK-MES-1; first compound 0.05 µM) was 1.08 and the relative viability (SK-MES-1; first compound 0.1581 µM) was 0.953. The relative viability (SK-MES-1; first compound 0.5 µM) was 0.978, the relative viability (NCI-H2405; first compound 0.005 µM) was 0.788 and the relative viability (NCI-H2405; first compound 0.01581 µM) was 0.948. For the same compound, the relative viability (NCI-H2405; first compound 0.05 µM) was 0.824, the relative viability (NCI-H2405; first compound 0.1581 µM) was 0.838 and the relative viability (NCI-H2405; first compound 0.5 µM) was 0.794. The relative viability (LCLC-103H; first compound 0.005 µM) was 1.05, the relative viability (LCLC-103H; first compound 0.01581 µM) was 0.979 and the relative viability (LCLC-103H; first compound 0.05 µM) was 0.951. The relative viability (LCLC-103H; first compound 0.1581 µM) was 1.12, the relative viability (LCLC-103H; first compound 0.5 µM) was 0.976 and the relative viability (NCI-H322M; first compound 0.005 µM) was 0.885. For the same compound, the relative viability (NCI-H322M; first compound 0.01581 µM) was 0.954, the relative viability (NCI-H322M; first compound 0.05 µM) was 0.839 and the relative viability (NCI-H322M; first compound 0.1581 µM) was 0.858. It also gave a relative viability (NCI-H322M; first compound 0.5 µM) of 0.92, a relative viability (HCC-827; first compound 0.005 µM) of 0.96 and a relative viability (HCC-827; first compound 0.01581 µM) of 0.962. It also gave a relative viability (HCC-827; first compound 0.05 µM) of 0.966, a relative viability (HCC-827; first compound 0.1581 µM) of 0.958 and a relative viability (HCC-827; first compound 0.5 µM) of 0.935. The relative viability (NCI-H520; first compound 0.005 µM) was 0.751, the relative viability (NCI-H520; first compound 0.01581 µM) was 0.715 and the relative viability (NCI-H520; first compound 0.05 µM) was 0.762. For the same compound, the relative viability (NCI-H520; first compound 0.1581 µM) was 0.737, the relative viability (NCI-H520; first compound 0.5 µM) was 0.79 and the relative viability (NCI-H2087; first compound 0.005 µM) was 0.911. The relative viability (NCI-H2087; first compound 0.01581 µM) was 0.766, the relative viability (NCI-H2087; first compound 0.05 µM) was 0.873 and the relative viability (NCI-H2087; first compound 0.1581 µM) was 0.892. For the same compound, the relative viability (NCI-H2087; first compound 0.5 µM) was 0.976, the relative viability (NCI-H2085; first compound 0.005 µM) was 0.862 and the relative viability (NCI-H2085; first compound 0.01581 µM) was 0.838. For the same compound, the relative viability (NCI-H2085; first compound 0.05 µM) was 0.861, the relative viability (NCI-H2085; first compound 0.1581 µM) was 0.822 and the relative viability (NCI-H2085; first compound 0.5 µM) was 0.909. It also gave a relative viability (EMC-BAC-2; first compound 0.005 µM) of 0.716, a relative viability (EMC-BAC-2; first compound 0.01581 µM) of 0.689 and a relative viability (EMC-BAC-2; first compound 0.05 µM) of 0.743. The relative viability (EMC-BAC-2; first compound 0.1581 µM) was 0.703, the relative viability (EMC-BAC-2; first compound 0.5 µM) was 0.701 and the relative viability (H3255; first compound 0.005 µM) was 0.902. The relative viability (H3255; first compound 0.01581 µM) was 1.06, the relative viability (H3255; first compound 0.05 µM) was 0.807 and the relative viability (H3255; first compound 0.1581 µM) was 0.891. The relative viability (H3255; first compound 0.5 µM) was 0.835, the relative viability (NCI-H2023; first compound 0.005 µM) was 0.668 and the relative viability (NCI-H2023; first compound 0.01581 µM) was 0.65. It also gave a relative viability (NCI-H2023; first compound 0.05 µM) of 0.694, a relative viability (NCI-H2023; first compound 0.1581 µM) of 0.738 and a relative viability (NCI-H2023; first compound 0.5 µM) of 0.662.
